Assay results published in patent US20240316055A1, “METHODS FOR TREATING LEIGH SYNDROME” (DBCC Research, LLC, priority 2023, published 2024).

Legend:
[1] = tested on: ECHS1 patient-derived fibroblasts; experiment: Mitochondrial respiration assay (Seahorse); format: cell-based; details: 48 hours; for respiration: glucose or galactose conditions, 1, 5 or 10 μM
Text: To assess the mechanism of action of hit compounds from the screens of previous Examples, which were based on rescue of viability after metabolic challenge, Seahorse assay was used to measure mitochondrial function in response to treatment at multiple concentrations. The Seahorse assay measures the following parameters: oxygen consumption; basal respiration rate; ATP-linked respiration; maximal respiration; reserve capacity; and ATP production rate. At baseline (no treatment), the ECHS1 patient-derived fibroblasts had lower respiration rates than the control fibroblasts in glucose culturing conditions (20% reduction) and in galactose culturing conditions (30% reduction).
ECHS1 patient-derived fibroblasts and age-matched and sex-matched control fibroblasts were initially grown in standard media (DMEM+2 mM glutamine+1 mM pyruvate) containing 10 mM glucose as the energy source. Cells were seeded into specialized 96-well plates at a density of 10,000 cells per well. One day after plating, cells were treated with the test compounds at the concentrations of 0, 1, 5, or 10 μM. Half of the samples were cultured in 10 mM glucose media in addition to the test compounds. The remaining half of the sample were cultured in 10 mM galactose media, which is a metabolic challenge, in addition to the test compound. Test compounds were incubated with cells for 48 hours. According to the standard Seahorse protocol, the following stressors were added to cells in sequential order: 2 μM oligomycin; 5 μM carbonyl cyanide-4-(trifluoromethoxy)phenylhydrazone (FCCP); 9 μM FCCP; 2 μM rotenone and 2 μM antimycin A. Data were normalized to cell number per well using a Hoechst stain for cell nuclei. Two rounds of experiments were conducted. The results were consistent between the two rounds.

ECHS1 knockdown larvae = experiment: Fly larva experiment: buoyancy (float/sink); format: in vivo, Drosophila; details: multiple doses fed to larvae; untreated ECHS1 knockdown larvae 30% sank
Text: To determine whether the Drosophila larvae experiment would be appropriate for further evaluation of compounds, the phenotype induced by ECHSI RNAi was identified. […] It was noted that when extracted from food and placed in 1X PBS, ECHS1 knockdown larvae were buoyant and sank only ˜30% of the time, while age-matched control larvae always sank at 100% frequency.
To test the ability of drug compounds to rescue these two ECHS1 knockdown phenotypes, the larvae were fed with fly food with various concentrations of 10 candidate drugs and first measured for larval size. During the 6 days prior to collection and phenotyping, larvae were raised in the drug food and exposed to drug continuously throughout development. […] Independently, losmapimod, talmapimod, ralimetinib, and neflamapimod were selected at multiple doses and fed to larvae and the population-wide float/sink proportions were assayed. In contrast to untreated ECHS1 knockdown larvae, where 30% sank, treatment with drug compounds nearly doubled the sinking proportions to 60%. Considering the effect of ECHSI on buoyancy in light of its enzymatic function catalyzing the second step of mitochondrial fatty acid beta-oxidation, decreased ECHS1 activity was expected to increase levels of non-metabolized lipid which would increase buoyancy. Thus, compounds were identified that suppressed both quantitative and nominal phenotypes, one of which appears to be directly relevant to the enzymatic function of ECHS1.

ECHS1 Fibroblast cells = experiment: Galactose potency screen (cell viability, DAPI nuclei count); format: cell-based; details: galactose potency screen, FIG. 2
Method: Galactose Screen: Compound library plates were obtained from Prestwick/Selleck and SPECS (7,591 compounds total, 27 compounds/plate/concentration at 1 μM and 10 μM, 384-well plates). ECHS1 Fibroblast cells were harvested at 95% confluent with trypsin and suspended in Dulbecco's Modified Eagle Medium (DMEM)+10% Fetal Bovine Serum (FBS). The suspension was centrifuged at 200x g for 5 min. The suspension was discarded and the pellet was resuspended in the 5.5 mM galactose medium (DMEM+10% FBS+5.5 mM galactose) and seeded at 750 cells/well (50 μL) into the compound wells (1 μM and 10 μM). For the positive control experiment, the cells were suspended in 5.5 mM galactose medium+5.5 mM glucose+0.01% DMSO and seeded at 750 cells/well (50 μL) into the blank wells. For the negative control experiment, the cells were suspended in the 5.5 mM galactose medium+0.01% DMSO and seeded at 750 cells/well (50 μL) into the blank wells. The seeded plates were incubated at 37° C. for 96 hours, then 15 μL/well of 16% paraformaldehyde solution was added to the plates and allowed to sit for 15 min to fix the cells. The plates were then washed 3x with 50 μL/well of phosphate-buffered saline (PBS). The cells were stained with […] of a solution of 4,6-diamidino-2-phenylindole dilactate (DAPI, Invitrogen) and left at room temperature for 1 hr. The plates were then washed 3x with 50 μL/well of PBS prior to imaging. Agilent BioTek EL406 Microplate Washer Dispenser was used for the cell fixation and staining protocol. The plates were imaged using GE InCell2200 Cell Analyzer using PerkinElmer Columbus software quantification protocol. The data was analyzed using Genedata, Vortex, and Abase software. A Z-score value of >2 was used for the Prestwick/Selleck compound library and >3 for the SPECS library (based on the negative control population) to determine hit selection.
ECHS1 Fibroblast cells were harvested at 70-80% confluent with trypsin and suspended in DMEM+10% FBS. The suspension was centrifuged at 200x g for 5 min. The suspension was discarded and the pellet was resuspended in the either the 5.5 mM galactose medium (DMEM+10% FBS+5.5 mM of galactose) or the 10 mM propionate medium (DMEM+10% FBS+10 mM sodium propionate). The cells were seeded at 750 cells/well (50 μL) into a 384-well plate containing the test compounds (3-fold serial dilution across 10 plates, starting at 10 uM). For the positive control experiment, the cells were suspended in either the 5.5 mM galactose medium or 10 mM propionate medium+5.5 mM glucose+0.01% DMSO and seeded at 750 cells/well (50 μL) into the blank wells. For the negative control experiment, the cells were suspended in the 5.5 mM galactose or 10 mM propionate medium +0.01% DMSO and seeded at 750 cells/well (50 μL) into the blank wells. The seeded plates were incubated at 37° C. for 96 hours, then 15 μL/well of 16% paraformaldehyde solution was added to the plates and allowed to sit for 15 min to fix the cells. The plates were then washed 3x with 50 μL/well of PBS. The cells were stained with 25 μL/well of a solution of DAPI and left at room temperature for 1 hr. The plates were then washed 3x with 50 μL/well of PBS prior to imaging. Agilent BioTek EL406 Microplate Washer Dispenser was used for the cell fixation and staining protocol. The plates were imaged using GE InCell2200 Cell Analyzer using PerkinElmer Columbus software quantification protocol. The data was analyzed using Genedata, Vortex, and Abase software. A Z-score value of >2 was used for both the Prestwick/Selleck and SPECS library (based on the negative control population) to determine hit selection.

Row | SMILES | respiration [1] | sinking proportions (ECHS1 knockdown larvae) | concentration-dependent curves (ECHS1 Fibroblast cells) | ATP production rates [1] | increase in maximal respiration ([1]; glucose-treated cells, 10 μM) | maximal respiration ([1]; glucose-treated cells)
1 | Cc1c(F)cc(C(=O)NC2CC2)cc1-c1ccc(C(=O)NCC(C)(C)C)cn1 [losmapimod, 6-[5-(cyclopropylcarbamoyl)-3-fluoro-2-methylphenyl]-N-(2,2-dimethylpropyl)pyridine-3-carboxamide] | did not result in major changes | 60% | – | – | – | –
2 | O=c1ncn2nc(Sc3ccc(F)cc3F)ccc2c1-c1c(Cl)cccc1Cl [neflamapimod, 5-(2,6-dichlorophenyl)-2-(2,4-difluorophenyl)sulfanylpyrimido[1,6-b]pyridazin-6-one] | – | 60% | non-linear response | – | – | –
3 | CC(C)(C)Cn1c(N)nc2ccc(-c3[nH]c(C(C)(C)C)nc3-c3ccc(F)cc3)nc21 [ralimetinib, 5-[2-tert-butyl-4-(4-fluorophenyl)-1H-imidazol-5-yl]-3-(2,2-dimethylpropyl)imidazo[4,5-b]pyridin-2-amine] | did not result in major changes | 60% | non-linear response | – | – | –
4 | C[C@@H]1CN(Cc2ccc(F)cc2)[C@@H](C)CN1C(=O)c1cc2c(C(=O)C(=O)N(C)C)cn(C)c2cc1Cl [talmapimod, 2-[6-chloro-5-[(2R,5S)-4-[(4-fluorophenyl)methyl]-2,5-dimethylpiperazine-1-carbonyl]-1-methylindol-3-yl]-N,N-dimethyl-2-oxoacetamide] | – | 60% | non-linear response | no change | 11% | dose-dependent increase
